Reference: PubChem BioAssay (NCI)
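Five concentrations, 48 hours, 96-well plates. GI50 is the concentration that inhibits growth by half. TGI marks complete inhibition of growth.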

Assays:
Test in all cases: NCI anticancer screen, dose series, 48 h
SNB-19 CNS = test system: SNB-19 CNS
SF-268 CNS = test system: SF-268 CNS
U251 CNS = test system: U251 CNS
M14 melanoma = test system: M14 melanoma
NCI-H226 lung = test system: NCI-H226 lung
CAKI-1 renal = test system: CAKI-1 renal
OVCAR-4 ovarian = test system: OVCAR-4 ovarian
HCT-15 colon = test system: HCT-15 colon
SK-MEL-2 melanoma = test system: SK-MEL-2 melanoma
T-47D breast = test system: T-47D breast

Row | Structure (SMILES) | TGI (SNB-19 CNS) | TGI (SF-268 CNS) | TGI (U251 CNS) | TGI (M14 melanoma) | TGI (NCI-H226 lung) | TGI (CAKI-1 renal) | TGI (OVCAR-4 ovarian) | TGI (HCT-15 colon) | TGI (SK-MEL-2 melanoma) | TGI (T-47D breast) | GI50 (SNB-19 CNS) | GI50 (SF-268 CNS) | GI50 (U251 CNS) | GI50 (NCI-H226 lung) | GI50 (CAKI-1 renal) | GI50 (OVCAR-4 ovarian) | GI50 (T-47D breast) | GI50 (HCT-15 colon) | GI50 (SK-MEL-2 melanoma) | GI50 (M14 melanoma)
1 | O=C(C#Cc1c[nH]c(=O)[nH]c1=O)c1ccccc1 | 32 µM | 26.8 µM | 26.9 µM | 18 µM | 63.9 µM | 32.3 µM | 27.1 µM | 24.9 µM | 24.8 µM | – | – | – | – | – | – | – | – | – | – | –
2 | Cc1ccc(C(=O)/C=C/c2ccccc2Cl)cc1 | 32.5 µM | 48 µM | 30.3 µM | 31.4 µM | 61 µM | 34.6 µM | 34.6 µM | 29.1 µM | – | – | – | – | – | – | – | – | – | – | – | –
3 | CC1CC(=O)C(C(O)CC2CC(=O)N(c3ccccc3)C(=O)C2)C(C)C1 (stereo not drawn) | > 100 µM | > 100 µM | > 100 µM | > 100 µM | > 100 µM | > 100 µM | > 100 µM | – | – | – | – | – | – | – | – | – | – | – | – | –
4 | CCCCCN(CCCCC)C(=O)[C@@H](CCC(=O)OCc1ccccc1)NC(=O)c1cc2ccccc2[nH]1 | > 100 µM | > 100 µM | > 100 µM | > 100 µM | – | > 100 µM | > 100 µM | > 100 µM | > 100 µM | – | – | – | – | – | – | – | – | – | – | –
5 | COc1ccc(/C=N/NC(=O)O)cc1 | > 100 µM | – | > 100 µM | > 100 µM | – | > 100 µM | > 100 µM | > 100 µM | > 100 µM | > 100 µM | – | – | – | – | – | – | – | – | – | –
6 | Cc1cccc(NC(=O)CC2C(=O)Nc3ccccc3S2(=O)=O)c1C (stereo not drawn) | > 100 µM | > 100 µM | 78.1 µM | > 100 µM | 58.3 µM | > 100 µM | 32.1 µM | > 100 µM | 75.4 µM | – | – | – | – | – | – | – | – | – | – | –
7 | C=C(C)C1CC[C@]2(C(=O)O)CCC3(C)[C@H](CCC4[C@@]5(C)CC[C@H](OC6OC(CO)C(O)C6OC6OC(C)C(O)C(O)C6O)[C@@](C)(CO)C5CC[C@]43C)C12 (stereo partly drawn) | > 100 µM | > 100 µM | > 100 µM | > 100 µM | > 100 µM | – | > 100 µM | > 100 µM | > 100 µM | – | – | – | – | – | – | – | – | – | – | –
8 | COc1ccc(-c2c(N)[n+]([O-])c3cc(C)c(C)cc3[n+]2[O-])cc1OC | > 100 µM | > 100 µM | > 100 µM | > 100 µM | > 100 µM | > 100 µM | > 100 µM | > 100 µM | > 100 µM | – | – | – | – | – | – | – | – | – | – | –
9 | O=[N+]([O-])c1ccc2nc(N/N=C/c3ccc(O)cc3)sc2c1 | > 100 µM | 53.1 µM | 67.5 µM | – | 62.8 µM | 81.5 µM | 51.8 µM | > 100 µM | 25.7 µM | 13.2 µM | 6.24 µM | 4.84 µM | 4.56 µM | 17.5 µM | 4.07 µM | 3.92 µM | 3.01 µM | 3.87 µM | 4 µM | –
10 | CSc1s[s+]c(SC)c1[O-] | > 100 µM | 55.8 µM | 86.5 µM | 75.8 µM | > 100 µM | 53.6 µM | > 100 µM | > 100 µM | > 100 µM | – | – | – | – | – | – | – | – | – | – | –
11 | C=C(CO)CC(O)c1ccccc1 (stereo not drawn) | > 100 µM | > 100 µM | > 100 µM | > 100 µM | > 100 µM | – | > 100 µM | > 100 µM | > 100 µM | – | – | – | – | – | – | – | – | – | – | –
12 | C/C=C/C=C/[C@H]1Cc2cc(O)cc(O)c2O1 | > 100 µM | > 100 µM | > 100 µM | > 100 µM | – | > 100 µM | > 100 µM | > 100 µM | > 100 µM | – | – | – | – | – | – | – | – | – | – | –
13 | CN(C)CCCC1(c2ccc(F)cc2)OCc2cc(-c3ccc4cc[nH]c4c3)ccc21 (stereo not drawn) | 3.67 µM | 3.26 µM | – | 3.82 µM | 29.3 µM | 3.11 µM | 4.72 µM | 3.14 µM | 4.72 µM | 5.17 µM | 1.79 µM | 1.64 µM | – | 10.7 µM | 1.63 µM | 2.16 µM | 2.01 µM | 1.7 µM | 2.19 µM | 1.88 µM
14 | CC1=CCC2(C#N)CCC1C2=O (stereo not drawn) | > 100 µM | > 100 µM | > 100 µM | > 100 µM | > 100 µM | > 100 µM | > 100 µM | > 100 µM | > 100 µM | – | – | – | – | – | – | – | – | – | – | –
15 | COC(=O)C1CCc2c(OC)ccc(OC)c2C1=O (stereo not drawn) | > 100 µM | – | > 100 µM | > 100 µM | – | > 100 µM | > 100 µM | – | > 100 µM | – | – | – | – | – | – | – | – | – | – | –
16 | O=C(NCCNCCO)c1ccc2oc3cc4ccccc4c(=O)n3c2c1 | 40.9 µM | 18.5 µM | 17.1 µM | 16.7 µM | – | 29.6 µM | 36.8 µM | – | 15.5 µM | 27.4 µM | 14.1 µM | 7.42 µM | 8.52 µM | – | 9.56 µM | 15.8 µM | 10.2 µM | – | 6.52 µM | 8.6 µM
17 | Clc1ccc2c(NCCCN3CCN(c4nc(-n5ccnc5)nc5ccccc45)CC3)ccnc2c1 | 6.49 µM | – | 3.53 µM | – | > 100 µM | – | > 100 µM | 3.8 µM | > 22.1 µM | > 100 µM | 2.55 µM | – | 1.89 µM | > 100 µM | 8.91 µM | > 100 µM | > 100 µM | 1.61 µM | 12.3 µM | –
18 | O=S(=O)(Nc1ccc(Cl)c(C(F)(F)F)c1)c1ccc(-c2cnc(C3CC3)o2)cc1 | – | 10.8 µM | 10.9 µM | 4.68 µM | 4.73 µM | 5.75 µM | 9.75 µM | 5.57 µM | 3.67 µM | 8.92 µM | – | 1.24 µM | 0.326 µM | 1.41 µM | 0.162 µM | 1.63 µM | 0.289 µM | 0.156 µM | 0.343 µM | 0.276 µM
19 | COCCN1C2=CCCCC2=Nc2c(N)nc(N)nc21 | > 100 µM | > 100 µM | > 100 µM | > 100 µM | > 100 µM | > 100 µM | – | > 100 µM | > 100 µM | – | – | – | – | – | – | – | – | – | – | –
20 | CN/N=C(\C)CC(=O)Nc1cccc(Cl)c1C | > 100 µM | > 100 µM | > 100 µM | > 100 µM | > 100 µM | > 100 µM | > 100 µM | > 100 µM | > 100 µM | – | – | – | – | – | – | – | – | – | – | –
